Key:
[1] = tested on: Tyrosine-protein kinase ABL1 (Homo sapiens), P00519 [H396P]; conditions: Compound concentration 1000.0 nM
[2] = tested on: ALK tyrosine kinase receptor (Homo sapiens), Q9UM73 [L1196M]; conditions: Compound concentration 1000.0 nM
[3] = biological target: Tyrosine-protein kinase receptor UFO (Homo sapiens) (UniProt P30530); conditions: Compound concentration 1000.0 nM
[4] = biological target: Calcium/calmodulin-dependent protein kinase kinase 2 (Homo sapiens) (UniProt Q96RR4); conditions: Compound concentration 1000.0 nM
[5] = biological target: Serine/threonine-protein kinase DCLK2 (Homo sapiens) (UniProt Q8N568); conditions: Compound concentration 1000.0 nM
[6] = tested on: Epidermal growth factor receptor (Homo sapiens), P00533 [UNDEFINED MUTATION]; conditions: Compound concentration 1000.0 nM
Chain of Epidermal growth factor receptor (Homo sapiens), P00533 [UNDEFINED MUTATION] (P00533 whole entry, looked up, change not shown): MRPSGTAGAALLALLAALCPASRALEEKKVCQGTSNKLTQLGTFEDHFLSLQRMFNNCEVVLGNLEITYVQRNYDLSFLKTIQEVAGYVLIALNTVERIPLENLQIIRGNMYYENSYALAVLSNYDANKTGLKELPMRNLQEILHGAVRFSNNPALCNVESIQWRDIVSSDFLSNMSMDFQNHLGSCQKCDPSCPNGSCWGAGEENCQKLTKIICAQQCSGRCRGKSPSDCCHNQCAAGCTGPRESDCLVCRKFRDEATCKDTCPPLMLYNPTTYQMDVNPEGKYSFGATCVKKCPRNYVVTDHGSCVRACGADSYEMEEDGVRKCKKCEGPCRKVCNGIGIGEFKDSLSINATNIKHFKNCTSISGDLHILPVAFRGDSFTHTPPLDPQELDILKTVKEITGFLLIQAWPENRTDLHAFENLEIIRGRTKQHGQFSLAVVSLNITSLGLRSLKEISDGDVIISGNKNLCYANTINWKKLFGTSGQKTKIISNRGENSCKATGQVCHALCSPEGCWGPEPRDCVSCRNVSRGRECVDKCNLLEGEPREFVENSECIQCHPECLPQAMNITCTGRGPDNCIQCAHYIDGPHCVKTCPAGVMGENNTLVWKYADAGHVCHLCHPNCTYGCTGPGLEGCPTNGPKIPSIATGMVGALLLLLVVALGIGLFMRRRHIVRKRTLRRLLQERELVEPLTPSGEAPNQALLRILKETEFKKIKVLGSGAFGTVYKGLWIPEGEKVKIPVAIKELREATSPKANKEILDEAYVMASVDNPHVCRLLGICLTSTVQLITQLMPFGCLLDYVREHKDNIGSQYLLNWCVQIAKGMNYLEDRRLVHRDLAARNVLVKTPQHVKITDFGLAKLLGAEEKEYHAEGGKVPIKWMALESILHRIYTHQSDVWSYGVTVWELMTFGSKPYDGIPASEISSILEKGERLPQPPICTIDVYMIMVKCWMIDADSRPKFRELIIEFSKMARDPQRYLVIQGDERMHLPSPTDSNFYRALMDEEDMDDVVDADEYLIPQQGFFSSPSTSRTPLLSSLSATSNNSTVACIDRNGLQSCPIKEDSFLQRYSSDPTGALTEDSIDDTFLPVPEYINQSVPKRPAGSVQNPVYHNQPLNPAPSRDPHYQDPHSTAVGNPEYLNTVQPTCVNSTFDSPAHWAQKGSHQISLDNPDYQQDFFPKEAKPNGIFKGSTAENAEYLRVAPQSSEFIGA

[7] = biological target: Beta-adrenergic receptor kinase 1 (Homo sapiens) (UniProt P25098); conditions: Compound concentration 1000.0 nM
[8] = biological target: Inhibitor of nuclear factor kappa-B kinase subunit beta (Homo sapiens) (UniProt O14920); conditions: Compound concentration 1000.0 nM
[9] = tested on: Mast/stem cell growth factor receptor Kit (Homo sapiens), P10721 [A829P]; conditions: Compound concentration 1000.0 nM
Chain of Mast/stem cell growth factor receptor Kit (Homo sapiens), P10721 [A829P] (P10721 whole entry A829P): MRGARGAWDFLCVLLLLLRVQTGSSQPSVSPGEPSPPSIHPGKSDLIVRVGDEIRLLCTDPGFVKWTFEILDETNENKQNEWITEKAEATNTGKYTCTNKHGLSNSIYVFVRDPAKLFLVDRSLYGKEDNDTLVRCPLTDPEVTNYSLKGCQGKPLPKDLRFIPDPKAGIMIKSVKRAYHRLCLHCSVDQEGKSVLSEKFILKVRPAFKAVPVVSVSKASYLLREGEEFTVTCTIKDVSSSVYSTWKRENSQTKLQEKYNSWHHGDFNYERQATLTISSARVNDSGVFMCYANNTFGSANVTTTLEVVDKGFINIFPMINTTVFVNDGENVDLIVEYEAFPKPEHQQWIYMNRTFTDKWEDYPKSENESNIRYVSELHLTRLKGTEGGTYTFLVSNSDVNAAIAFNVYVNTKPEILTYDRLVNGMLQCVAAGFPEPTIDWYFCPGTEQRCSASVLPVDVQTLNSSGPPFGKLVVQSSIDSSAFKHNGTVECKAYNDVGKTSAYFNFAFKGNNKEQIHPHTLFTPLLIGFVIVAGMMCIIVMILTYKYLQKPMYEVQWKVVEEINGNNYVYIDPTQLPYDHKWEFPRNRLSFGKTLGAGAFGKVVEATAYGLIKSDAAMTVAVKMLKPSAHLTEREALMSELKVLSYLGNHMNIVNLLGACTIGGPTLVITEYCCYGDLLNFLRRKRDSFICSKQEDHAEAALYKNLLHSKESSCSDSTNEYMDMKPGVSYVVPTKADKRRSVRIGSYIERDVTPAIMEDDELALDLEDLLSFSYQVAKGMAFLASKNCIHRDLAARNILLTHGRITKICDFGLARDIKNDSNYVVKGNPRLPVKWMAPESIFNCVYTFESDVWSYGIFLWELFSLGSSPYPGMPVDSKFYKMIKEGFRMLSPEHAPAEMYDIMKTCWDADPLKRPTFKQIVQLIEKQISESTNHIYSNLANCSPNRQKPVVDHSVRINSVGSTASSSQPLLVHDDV

[10] = biological target: Dual specificity mitogen-activated protein kinase kinase 6 (Homo sapiens) (UniProt P52564); conditions: Compound concentration 1000.0 nM
[11] = biological target: Dual specificity mitogen-activated protein kinase kinase 7 (Homo sapiens) (UniProt O14733); conditions: Compound concentration 1000.0 nM
Chain of Dual specificity mitogen-activated protein kinase kinase 7 (Homo sapiens) (O14733 whole entry): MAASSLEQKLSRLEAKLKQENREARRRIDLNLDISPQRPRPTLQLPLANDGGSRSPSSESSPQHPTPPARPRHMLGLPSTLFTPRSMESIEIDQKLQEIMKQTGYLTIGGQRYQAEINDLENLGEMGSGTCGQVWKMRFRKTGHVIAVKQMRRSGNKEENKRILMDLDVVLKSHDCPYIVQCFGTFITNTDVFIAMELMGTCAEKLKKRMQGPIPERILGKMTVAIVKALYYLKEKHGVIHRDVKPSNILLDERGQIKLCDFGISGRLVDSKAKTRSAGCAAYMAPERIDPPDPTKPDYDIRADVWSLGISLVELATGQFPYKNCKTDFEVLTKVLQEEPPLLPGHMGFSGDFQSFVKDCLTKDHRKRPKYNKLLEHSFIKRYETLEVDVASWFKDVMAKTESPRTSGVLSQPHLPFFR

[12] = biological target: MAP kinase-interacting serine/threonine-protein kinase 1 (Homo sapiens) (UniProt Q9BUB5); conditions: Compound concentration 1000.0 nM
[13] = biological target: Serine/threonine-protein kinase Nek5 (Homo sapiens) (UniProt Q6P3R8); conditions: Compound concentration 1000.0 nM
Chain of Serine/threonine-protein kinase Nek5 (Homo sapiens) (Q6P3R8 whole entry, canonical isoform): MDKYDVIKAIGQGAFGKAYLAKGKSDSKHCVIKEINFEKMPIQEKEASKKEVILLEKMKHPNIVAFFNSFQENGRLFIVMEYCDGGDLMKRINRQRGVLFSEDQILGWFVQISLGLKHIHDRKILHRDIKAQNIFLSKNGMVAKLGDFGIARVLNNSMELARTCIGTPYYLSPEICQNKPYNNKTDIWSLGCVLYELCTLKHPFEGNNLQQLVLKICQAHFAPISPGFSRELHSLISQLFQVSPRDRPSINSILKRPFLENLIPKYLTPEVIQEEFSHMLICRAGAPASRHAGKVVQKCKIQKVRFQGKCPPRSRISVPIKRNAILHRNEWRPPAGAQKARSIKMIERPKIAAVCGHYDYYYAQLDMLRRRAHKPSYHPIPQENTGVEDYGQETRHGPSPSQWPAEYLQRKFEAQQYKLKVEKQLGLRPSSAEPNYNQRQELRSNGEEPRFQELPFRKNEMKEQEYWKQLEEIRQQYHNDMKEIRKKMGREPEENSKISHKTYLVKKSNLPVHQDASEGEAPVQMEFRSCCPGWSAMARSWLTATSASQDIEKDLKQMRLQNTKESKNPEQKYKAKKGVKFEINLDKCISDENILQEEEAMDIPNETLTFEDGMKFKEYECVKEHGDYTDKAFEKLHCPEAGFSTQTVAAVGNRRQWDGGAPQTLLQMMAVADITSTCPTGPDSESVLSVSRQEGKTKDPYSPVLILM

[14] = tested on: Phosphatidylinositol 4,5-bisphosphate 3-kinase catalytic subunit alpha isoform (Homo sapiens), P42336 [H1047Y]; conditions: Compound concentration 1000.0 nM
[15] = biological target: Protein kinase C epsilon type (Homo sapiens) (UniProt Q02156); conditions: Compound concentration 1000.0 nM
Chain of Protein kinase C epsilon type (Homo sapiens) (Q02156 whole entry): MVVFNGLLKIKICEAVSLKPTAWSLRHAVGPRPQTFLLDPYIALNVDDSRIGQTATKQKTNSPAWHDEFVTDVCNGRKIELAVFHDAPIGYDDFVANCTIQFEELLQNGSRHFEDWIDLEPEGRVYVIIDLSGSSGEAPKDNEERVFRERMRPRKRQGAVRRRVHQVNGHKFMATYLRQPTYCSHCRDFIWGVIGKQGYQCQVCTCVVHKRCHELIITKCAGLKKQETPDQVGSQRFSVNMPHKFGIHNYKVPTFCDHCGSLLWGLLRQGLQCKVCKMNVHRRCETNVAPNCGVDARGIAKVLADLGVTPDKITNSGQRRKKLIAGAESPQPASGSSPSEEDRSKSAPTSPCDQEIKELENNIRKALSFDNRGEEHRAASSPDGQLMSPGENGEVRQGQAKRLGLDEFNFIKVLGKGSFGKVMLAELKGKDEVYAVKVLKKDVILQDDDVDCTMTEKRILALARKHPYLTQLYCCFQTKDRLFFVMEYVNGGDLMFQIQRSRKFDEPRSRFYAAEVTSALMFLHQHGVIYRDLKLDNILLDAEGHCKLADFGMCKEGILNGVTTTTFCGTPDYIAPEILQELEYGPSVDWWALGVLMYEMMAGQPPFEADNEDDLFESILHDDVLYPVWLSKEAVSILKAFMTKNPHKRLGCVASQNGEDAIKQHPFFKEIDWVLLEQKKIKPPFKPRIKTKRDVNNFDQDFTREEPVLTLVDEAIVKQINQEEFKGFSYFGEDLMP

[16] = biological target: Receptor-interacting serine/threonine-protein kinase 1 (Homo sapiens) (UniProt Q13546); conditions: Compound concentration 1000.0 nM
[17] = biological target: 5-hydroxytryptamine receptor 2B (Homo sapiens) (UniProt P41595); conditions: Compound concentration 10.0 uM
[18] = biological target: Alpha-1B adrenergic receptor (Homo sapiens) (UniProt P35368); conditions: Compound concentration 10.0 uM
[19] = biological target: Alpha-2B adrenergic receptor (Homo sapiens) (UniProt P18089); conditions: Compound concentration 10.0 uM
[20] = biological target: Beta-1 adrenergic receptor (Homo sapiens) (UniProt P08588); conditions: Compound concentration 10.0 uM
[21] = biological target: Gastrin/cholecystokinin type B receptor (Homo sapiens) (UniProt P32239); experiment: CCKB (h) CEREP ligand profiling; conditions: Compound concentration 10.0 uM
[22] = biological target: D(2) dopamine receptor (Homo sapiens) (UniProt P14416); experiment: D2S (h) CEREP ligand profiling; conditions: Compound concentration 10.0 uM
[23] = biological target: T1, D(4) dopamine receptor (Homo sapiens) (UniProt P21917); experiment: D4.4 (h) CEREP ligand profiling; conditions: Compound concentration 10.0 uM
T1 sequence (whole entry): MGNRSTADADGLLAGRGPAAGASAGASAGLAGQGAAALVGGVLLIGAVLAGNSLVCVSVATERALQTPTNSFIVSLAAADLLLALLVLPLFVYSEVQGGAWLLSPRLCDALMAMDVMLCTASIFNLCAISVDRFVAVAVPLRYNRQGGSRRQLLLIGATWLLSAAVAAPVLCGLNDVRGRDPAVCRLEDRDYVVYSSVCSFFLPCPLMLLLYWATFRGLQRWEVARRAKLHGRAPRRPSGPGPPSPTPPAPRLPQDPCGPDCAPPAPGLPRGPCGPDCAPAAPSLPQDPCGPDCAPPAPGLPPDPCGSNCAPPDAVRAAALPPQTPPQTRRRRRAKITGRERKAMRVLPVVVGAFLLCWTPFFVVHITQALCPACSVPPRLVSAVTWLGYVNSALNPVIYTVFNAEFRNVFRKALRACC

[24] = GABA CEREP ligand profiling; conditions: Compound concentration 10.0 uM
[25] = biological target: Histamine H2 receptor (Homo sapiens) (UniProt P25021); experiment: H2 (h) CEREP ligand profiling; conditions: Compound concentration 10.0 uM
[26] = biological target: Melatonin receptor type 1A (Homo sapiens) (UniProt P48039); experiment: MT1 (h) CEREP ligand profiling; conditions: Compound concentration 10.0 uM
[27] = K+ channel CEREP ligand profiling; conditions: Compound concentration 10.0 uM
[28] = biological target: Adenosine receptor A2a (Homo sapiens) (UniProt P29274); experiment: A2A (h) CEREP ligand profiling; conditions: Compound concentration 10.0 uM
[29] = biological target: Adrenergic receptor alpha-1 (Homo sapiens) (UniProt P35348+P25100+P35368); experiment: alpha1 CEREP ligand profiling; assay type: protein assay; conditions: Compound concentration 10.0 uM
[30] = biological target: GABA-A receptor; anion channel (Homo sapiens) (UniProt P14867+P47870+P18507+P28472+P48169+Q99928+Q9UN88+P34903+O00591+O14764+Q8N1C3+P18505+P78334+P47869+P31644+Q16445); experiment: BZD (central) CEREP ligand profiling; assay type: protein-complex assay; conditions: Compound concentration 10.0 uM
[31] = biological target: Tumor necrosis factor (Homo sapiens) (UniProt P01375); experiment: TNF-alpha (h) CEREP ligand profiling; conditions: Compound concentration 10.0 uM
[32] = biological target: Neuropeptide Y receptor type 1 (Homo sapiens) (UniProt P25929); experiment: Y1 (h) CEREP ligand profiling; conditions: Compound concentration 10.0 uM
[33] = biological target: Nociceptin receptor (Homo sapiens) (UniProt P41146); experiment: ORL1 (h) (NOP) CEREP ligand profiling; conditions: Compound concentration 10.0 uM
[34] = biological target: P2X receptor (Rattus norvegicus) (UniProt P51579+P49653+P51578+Q64663+P47824+P51577+P49654); experiment: P2X CEREP ligand profiling; assay type: protein assay; conditions: Compound concentration 10.0 uM
[35] = biological target: Sigma non-opioid intracellular receptor 1 (Homo sapiens, UniProt Q99720); experiment: sigma CEREP ligand profiling; conditions: Compound concentration 10.0 uM
[36] = biological target: Ca2+ channel (voltage-gated L-type calcium channel family) (Homo sapiens, UniProt O60840+Q01668+Q13698+Q13936); experiment: Ca2+ channel CEREP ligand profiling; assay type: protein assay; conditions: probe penylalkylamine (ligand); compound concentration 10 uM
[37] = biological target: Kappa-type opioid receptor (Cavia porcellus) (UniProt P41144); experiment: kappa (guinea pig) CEREP ligand profiling; conditions: Compound concentration 10.0 uM

Chain of Tyrosine-protein kinase receptor UFO (Homo sapiens) (P30530 whole entry): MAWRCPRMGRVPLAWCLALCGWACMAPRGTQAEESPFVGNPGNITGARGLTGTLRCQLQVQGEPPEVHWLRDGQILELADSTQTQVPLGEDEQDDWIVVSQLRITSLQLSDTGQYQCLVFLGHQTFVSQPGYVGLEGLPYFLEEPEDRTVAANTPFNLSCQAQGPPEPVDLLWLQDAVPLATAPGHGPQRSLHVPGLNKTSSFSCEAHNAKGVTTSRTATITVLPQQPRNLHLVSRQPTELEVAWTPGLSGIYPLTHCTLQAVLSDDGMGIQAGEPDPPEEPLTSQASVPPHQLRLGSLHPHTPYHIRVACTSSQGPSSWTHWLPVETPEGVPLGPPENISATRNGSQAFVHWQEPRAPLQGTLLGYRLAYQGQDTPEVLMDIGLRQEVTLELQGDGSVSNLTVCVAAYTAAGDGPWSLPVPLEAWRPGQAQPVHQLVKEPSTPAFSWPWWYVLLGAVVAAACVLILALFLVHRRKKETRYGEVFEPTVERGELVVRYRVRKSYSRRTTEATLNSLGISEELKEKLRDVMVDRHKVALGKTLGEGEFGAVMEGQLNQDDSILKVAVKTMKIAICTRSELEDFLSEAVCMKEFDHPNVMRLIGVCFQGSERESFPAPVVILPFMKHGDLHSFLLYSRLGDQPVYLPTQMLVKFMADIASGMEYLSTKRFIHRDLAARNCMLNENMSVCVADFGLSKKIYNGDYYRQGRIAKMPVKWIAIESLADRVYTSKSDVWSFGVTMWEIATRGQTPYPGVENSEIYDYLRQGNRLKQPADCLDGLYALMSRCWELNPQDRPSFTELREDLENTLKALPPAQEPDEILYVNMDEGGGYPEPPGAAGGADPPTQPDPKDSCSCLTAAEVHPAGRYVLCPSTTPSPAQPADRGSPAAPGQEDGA

Row | SMILES | residual activity [1] [%] | residual activity [2] [%] | residual activity [3] [%] | residual activity [5] [%] | residual activity [6] [%] | residual activity [8] [%] | residual activity [9] [%] | residual activity [11] [%] | residual activity [12] [%] | residual activity [13] [%] | residual activity [14] [%] | residual activity [15] [%] | residual activity [16] [%] | inhibition [17] [%] | inhibition [18] [%] | inhibition [19] [%] | further results
1 | CCC(=N\O)/C(C)=C/c1ccc(F)c(C)c1 [A-226] | 100 | 100 | 100 | 83 | 73 | 100 | 100 | 100 | 100 | 100 | 100 | 62 | 100 | 43.8 | 0.56 | 33.1 | residual activity [4]: 88%; residual activity [7]: 100%; residual activity [10]: 100%; inhibition [20]: 10.2%
2 | CCC(=N\O)/C(C)=C/c1ccc(F)cc1 [A-079] | 100 | 71 | 100 | 96 | 65 | 83 | 64 | 79 | 56 | 84 | 82 | 76 | 82 | 24.7 | 3.8 | 15.1 | inhibition [21]: 7%; inhibition [22]: 4%; inhibition [23]: 4%; inhibition [24]: -3%; inhibition [25]: 3%; inhibition [26]: 31%; inhibition [27]: -8%; inhibition [28]: 8%; inhibition [29]: 6%; inhibition [30]: 1%; inhibition [31]: 1%; inhibition [32]: 0%; inhibition [33]: -5%; inhibition [34]: -2%; inhibition [35]: -2%; inhibition at 10 µM [36]: 3% (not active); inhibition [37]: -4%
